Reference: patent US20090162413A1 (priority 1998, published 2009)

Assays:
[1] = tested on: porcine coronary arteries (neointimal hyperplasia); experiment: porcine coronary stent model, zotarolimus-eluting BiodivYsio PC stent vs polymer only stent, 28 days (Example 3); assay type: in vivo; details: stent eluting zotarolimus from a polymer, porcine coronary artery
[2] = Phase 1 multiple escalating intravenous dose safety and pharmacokinetics, QD for 14 days (Example 7); assay type: in vivo, human; details: for median Cmax: predicted 14-day profile; for AUCτ/Dose / Cmax / Cmax/Dose: secondary predicted parameter; for Gamma: terminal elimination rate constant
Method: The present study was designed to evaluate the pharmacokinetics of zotarolimus following multiple dosing and to assess its safety while maximizing systemic exposure of healthy subjects. […] The study investigated pharmacokinetics and safety of zotarolimus in a Phase 1, multiple dose-escalation study following multiple intravenous infusions of 200, 400 and 800 μg doses, every day for fourteen consecutive days in healthy subjects.
Phase 1, multiple-escalating dose, double-blind, placebo-controlled, randomized study. Seventy-two subjects equally divided in 3 once-daily (QD) regimens (200, 400 or 800 μg QD with 16 active and 8 placebo per regimen) were administered a 60-minute QD IV infusion of zotarolimus for 14 consecutive days. Blood samples were collected over 24 hours following the first dose, before dosing on days 10, 11, 12, 13, and for 168 hours following Day 14 dose. Urine samples were collected over 24 hours on days 1, 14, 16, 18 and 20. Blood and urine zotarolimus concentrations were determined using a validated LC/MS/MS method. Pharmacokinetic parameters were determined by compartmental analysis. All Day-AUC0-∞ (area under blood concentration-time curve from time 0 to infinity including all 14 doses) was calculated. Dose and time-linearity and achievement of steady-state were evaluated. Fraction of drug eliminated in urine was determined.
Within each group, subjects were equally divided at the two study sites with each site enrolling 12 subjects (zotarolimus, eight subjects; placebo four subjects). The dosing scheme within each dose group is presented below:
Subjects received, under fasting conditions, a single 60-minute daily (QD) intravenous infusion of 200, 400, or 800 μg of zotarolimus or a matching intravenous infusion of placebo for Groups I, II and III, respectively on Study Days 1 through 14. The drug was administered via a syringe pump connected to a y-site device, which also infused 125-150 mL of 5% aqueous dextrose solution (D5W) over 60 minutes. The groups were dosed sequentially with at least 7 days separating the last dose of the previous group and the first dose of the next group during which time safety data from the previous group was analyzed. Dose escalation was dependent on the safety analysis of the lower dose group.
Five (5)-mL blood samples were collected in potassium EDTA containing tubes to evaluate zotarolimus concentrations prior to dosing (0 hour), and at 0.25, 0.5, 1.0, 1 hour 5 min, 1.25, 1.5, 2, 3, 4, 8, 12, 18 and 24 hours after starting infusion on Study Days 1 and 14. Additional samples were collected at 36, 48, 72, 96, 120, 144 and 168 hours after starting infusion on Study Day 14 and before dosing on Days 10, 11, 12 and 13. Urine was collected in containers without preservatives over the following intervals: 0 to 6, 6 to 12, 12 to 18 and 18 to 24 hours after starting the infusion on Study Days 1, 14, 16, 18 and 20.
Blood and urine concentrations of zotarolimus were determined using a validated liquid/liquid extraction HPLC tandem mass spectrometric method (LC-MS/MS). The lower limit of quantification of zotarolimus was 0.20 ng/mL using 0.3 mL blood sample and 0.50 ng/mL using 0.3 mL urine sample.
Safety was evaluated based on adverse event, physical examination, vital signs, ECG, injection site and laboratory tests assessments
The pharmacokinetic parameter values of zotarolimus were estimated for individual subjects using compartmental analysis. Data from the first dose on Study Day 1, the last dose on Study Day 14 and the trough concentrations on Study Days 10, 11, 12 and 13 were simultaneously modeled for each individual subject. […]

[3] = release of zotarolimus from PC polymer coated 316L stainless steel coupons (Example 4); assay type: physicochemical
From the text: The purpose of this example is to determine the rate of release of the zotarolimus drug from 316L Electropolished Stainless Steel Coupons coated with a biocompatible polymer containing phosphorylcholine side groups.
Rubber septa from lids from HPLC vials were removed from the vials and placed into glass vials so that the “Teflon” side faced up. These septa served as supports for the test samples. The test samples were 316L stainless steel coupons that had been previously coated with a biocompatible polymer containing phosphorylcholine side groups (PC polymer). Coronary stents are commonly made of 316L stainless steel and can be coated with the PC polymer to provide a depot site for loading drugs. The coated coupons, which serve to simulate stents, were placed onto the septa. By using a glass Hamilton Syringe, a solution of zotarolimus and ethanol (10 μl) was applied to the surface of each coupon. The solution contained zotarolimus (30.6 mg) dissolved in 100% ethanol (3.0 ml). The syringe was cleaned with ethanol between each application. The cap to the glass vial was placed on the vial loosely, thereby assuring proper ventilation. The coupon was allowed to dry for a minimum of 1.5 hours. Twelve (12) coupons were loaded in this way—six being used to determine the average amount of drug loaded onto the device and six being used to measure the time needed to release the drug from the devices.
To determine the total amount of zotarolimus loaded onto a coupon, a coupon was removed from the vial and placed into 50/50 acetonitrile/0.01M phosphate buffer (pH 6.0, 5.0 ml). The coupon was placed onto a 5210 Branson sonicator for one hour. The coupon was then removed from the solution, and the solution was assayed by HPLC.
The time release studies were performed by immersing and removing the individual coupons from fresh aliquots (10.0 ml) of 0.01 M phosphate buffer at a pH of 6.0 at each of the following time intervals −5, 15, 30 and 60 minutes. For the remaining time points of 120, 180, 240, 300, 360 minutes, volumes of 5.0 ml of buffer were used. To facilitate mixing during the drug release phase, the samples were placed onto an Eberbach shaker set at low speed. All solution aliquots were assayed by HPLC after the testing of the last sample was completed.
The HPLC analysis was performed with a Hewlett Packard series 1100 instrument having the following settings: […]

CO[C@H]1C[C@@H]2CC[C@@H](C)[C@@](O)(O2)C(=O)C(=O)N2CCCC[C@H]2C(=O)O[C@H]([C@H](C)C[C@@H]2CC[C@H](n3cnnn3)[C@H](OC)C2)CC(=O)[C@H](C)/C=C(\C)[C@@H](O)[C@@H](OC)C(=O)[C@H](C)C[C@H](C)/C=C/C=C/C=C/1C [zotarolimus]
neointimal hyperplasia [1]: reduction in neointimal hyperplasia | V1 ([2]; 200 μg QD IV infusion 14 days, compartmental, mean ± SD): 11.4 ± 1.7 L | median Cmax ([2]; 200 μg QD): 0.0114 µg/mL | AUCτ/Dose ([2]; 200 μg QD, mean ± SD): 0.245 ± 0.031 ng·h/mL/µg | Cmax ([2]; 200 μg QD, mean ± SD): 0.0112 ± 0.0011 µg/mL | Cmax/Dose ([2]; 200 μg QD, mean ± SD): 0.056 ± 0.006 ng/mL/µg | Gamma ([2]; 200 μg QD, mean ± SD): 0.028 ± 0.005 h − 1 | V1 ([2]; 400 μg QD IV infusion 14 days, compartmental, mean ± SD): 11.3 ± 1.0 L | median Cmax ([2]; 400 μg QD): 0.0221 µg/mL | AUCτ/Dose ([2]; 400 μg QD, mean ± SD): 0.260 ± 0.047 ng·h/mL/µg | Cmax ([2]; 400 μg QD, mean ± SD): 0.0214 ± 0.0024 µg/mL | Cmax/Dose ([2]; 400 μg QD, mean ± SD): 0.053 ± 0.006 ng/mL/µg | Gamma ([2]; 400 μg QD, mean ± SD): 0.022 ± 0.003 h − 1 | V1 ([2]; 800 μg QD IV infusion 14 days, compartmental, mean ± SD): 13.1 ± 3.2 L | fraction of the dose recovered in the urine as unchanged drug ([2]; 800 μg QD dose group, 24-hour period on Day 1 and Day 14): approximately 0.1% | median Cmax ([2]; 800 μg QD): 0.0389 µg/mL | AUCτ/Dose ([2]; 800 μg QD, mean ± SD): 0.224 ± 0.022 ng·h/mL/µg | Cmax ([2]; 800 μg QD, mean ± SD): 0.0387 ± 0.0063 µg/mL | Cmax/Dose ([2]; 800 μg QD, mean ± SD): 0.048 ± 0.008 ng/mL/µg | Gamma ([2]; 800 μg QD, mean ± SD): 0.023 ± 0.003 h − 1 | evidence of immunosuppression, QTc prolongation or clinically significant adverse events ([2]; 200-800 μg QD for 14 days): no subject displayed any clinical or biochemical evidence of immunosuppression, QTc prolongation or clinically significant adverse events | most common treatment-emergent adverse events ([2]; 200-800 μg QD for 14 days): pain, headache, injection site reaction, dry skin, abdominal pain, diarrhea and rash | serious adverse events ([2]; 200-800 μg QD for 14 days): no serious adverse events | dose proportionality and time dependence of pharmacokinetics ([2]; IV for 14 consecutive days, 200-800 μg QD): dose proportional and time invariant | Steady state for QD dosing reached ([2]; QD IV dosing, first trough samples on Day 10): ≤ 10 days | tolerability ([2]; multiple doses of 200, 400, and 800 μg for 14 consecutive days): generally well tolerated | V1 ([2]; range of means over the studied regimens 200-800 μg QD): 11.3 to 13.1 L | zotarolimus dose recovered in the urine ([2]; within a 24-hour period post-dose, on average): 0.1% | Percent Release ([3]; 0.01 M phosphate buffer pH 6.0, 0.00 min): 0.00 | Percent Release ([3]; 0.01 M phosphate buffer pH 6.0, 5.00 min): 1.87 | Percent Release ([3]; 0.01 M phosphate buffer pH 6.0, 15.00 min): 2.97 | Percent Release ([3]; 0.01 M phosphate buffer pH 6.0, 30.00 min): 3.24 | Percent Release ([3]; 0.01 M phosphate buffer pH 6.0, 60.00 min): 3.29 | Percent Release ([3]; 0.01 M phosphate buffer pH 6.0, 180.00 min): 4.36 | Percent Release ([3]; 0.01 M phosphate buffer pH 6.0, 240.00 min): 4.37 | Percent Release ([3]; 0.01 M phosphate buffer pH 6.0, 300.00 min): 6.34 | Percent Release ([3]; 0.01 M phosphate buffer pH 6.0, 360.00 min): 7.88
